Measured values: PMC12678798, “Discovery of an allosteric binding site for anthraquinones at the human P2X4 receptor” (Nature Communications, 2025)

Key:
[1] = target: chimeric P2X4(P2X2) receptor c7^I218-D224 (Homo sapiens, UniProt Q99571, A221E/D220H/I218T/K222A/T223S/Y219F); experiment: cell-based
[2] = target: P2X4-D302I receptor mutant (Homo sapiens, UniProt Q99571, D302I); experiment: cell-based
P2X4-D302I receptor mutant, sequence (Q99571 whole entry D302I): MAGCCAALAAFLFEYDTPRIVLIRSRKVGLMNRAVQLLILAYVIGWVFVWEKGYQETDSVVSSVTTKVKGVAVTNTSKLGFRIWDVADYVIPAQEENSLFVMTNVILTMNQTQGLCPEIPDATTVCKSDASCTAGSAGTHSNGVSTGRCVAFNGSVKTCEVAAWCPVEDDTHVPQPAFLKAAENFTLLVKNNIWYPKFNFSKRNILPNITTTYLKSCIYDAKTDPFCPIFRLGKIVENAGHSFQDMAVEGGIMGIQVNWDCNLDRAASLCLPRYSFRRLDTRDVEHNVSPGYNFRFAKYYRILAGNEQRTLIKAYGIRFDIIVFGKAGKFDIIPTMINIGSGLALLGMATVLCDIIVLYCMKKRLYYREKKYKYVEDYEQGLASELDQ

chimeric P2X4(P2X2) receptor c7^I218-D224, sequence (Q99571 whole entry I218T/Y219F/D220H/A221E/K222A/T223S): as the sequence (Q99571 whole entry D302I) above, with I218T, Y219F, D220H, A221E, K222A, T223S, I302D counted along it

With `Nc1ncnc2c1ncn2[C@@H]1O[C@H](COP(=O)(O)OP(=O)(O)OP(=O)(O)O)[C@@H](O)[C@H]1O` [ATP, Adenosine 5′-triphosphate] the EC50 [1] was 1200 nM, the EC50 ([2]; ATP EC50, P2X4-D302I) was 1600 nM and the EC50 ([2]; ATP pEC50 ± SEM, P2X4-D302I) was 1410 nM.
